Measurements published in the supplement of paper PMC10307832.

Experiments:
Experiment in all cases: relative viability (nuclei count vs DMSO), 5 days (fraction); higher = more cells survive
4EGI-1 + Foretinib = compound: O=C(O)C(Cc1ccccc1[N+](=O)[O-])=NNc1nc(-c2ccc(Cl)c(Cl)c2)cs1 (mixture of isomers) [4EGI-1] + COc1cc2c(Oc3ccc(NC(=O)C4(C(=O)Nc5ccc(F)cc5)CC4)cc3F)ccnc2cc1OCCCN1CCOCC1 [Foretinib] (partner 0.25 µM)
Outline: (§1)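 The day after seeding in 1536-well plates, lung cancer cell lines were treated by pin tool with a single drug, or with a fixed anchor-drug dose together with five library-drug doses (not always all listed) in √10 steps. After 5 days, a combined fix-and-stain solution (final 0.05% Triton X-100, 1% formaldehyde, 1 ug/ml Hoechst) was added. Nuclei counted on 4× images gave relative viability as treated counts over vehicle counts, reported as the median of duplicate plates.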

XMD8-85 + Bortezomib = compound: CN1CCN(CC1)C2=CC(=C(C=C2)NC3=NC=C4C(=N3)N(C5=CC=CC=C5C(=O)N4C)C)OC [XMD8-85] + CC(C)C[C@H](NC(=O)[C@H](Cc1ccccc1)NC(=O)c1cnccn1)B(O)O [Bortezomib] (partner 0.002 µM)
Outline: as §1

4EGI-1 + Trametinib = compound: O=C(O)C(Cc1ccccc1[N+](=O)[O-])=NNc1nc(-c2ccc(Cl)c(Cl)c2)cs1 (mixture of isomers) [4EGI-1] + CC(=O)Nc1cccc(-n2c(=O)n(C3CC3)c(=O)c3c(Nc4ccc(I)cc4F)n(C)c(=O)c(C)c32)c1 [Trametinib] (partner 0.02 µM)
Outline: as §1

XMD8-85 + Dasatinib = compound: CN1CCN(CC1)C2=CC(=C(C=C2)NC3=NC=C4C(=N3)N(C5=CC=CC=C5C(=O)N4C)C)OC [XMD8-85] + Cc1nc(Nc2ncc(C(=O)Nc3c(C)cccc3Cl)s2)cc(N2CCN(CCO)CC2)n1 [Dasatinib] (partner 0.075 µM)
Outline: as §1

| Cell Line | relative viability (4EGI-1 + Foretinib; first compound 0.5 µM) | relative viability (4EGI-1 + Foretinib; first compound 1.581 µM) | relative viability (4EGI-1 + Foretinib; first compound 5 µM) | relative viability (4EGI-1 + Foretinib; first compound 15.81 µM) | relative viability (4EGI-1 + Foretinib; first compound 50 µM) | relative viability (XMD8-85 + Bortezomib; first compound 0.08 µM) | relative viability (XMD8-85 + Bortezomib; first compound 0.253 µM) | relative viability (XMD8-85 + Bortezomib; first compound 0.8 µM) | relative viability (XMD8-85 + Bortezomib; first compound 2.53 µM) | relative viability (XMD8-85 + Bortezomib; first compound 8 µM) | relative viability (4EGI-1 + Trametinib; first compound 0.5 µM) | relative viability (4EGI-1 + Trametinib; first compound 1.581 µM) | relative viability (4EGI-1 + Trametinib; first compound 5 µM) | relative viability (4EGI-1 + Trametinib; first compound 15.81 µM) | relative viability (4EGI-1 + Trametinib; first compound 50 µM) | relative viability (XMD8-85 + Dasatinib; first compound 0.08 µM) | relative viability (XMD8-85 + Dasatinib; first compound 0.8 µM) | relative viability (XMD8-85 + Dasatinib; first compound 2.53 µM) | relative viability (XMD8-85 + Dasatinib; first compound 8 µM) | relative viability (XMD8-85 + Dasatinib; first compound 0.253 µM) |
| --- | --- | --- | --- | --- | --- | --- | --- | --- | --- | --- | --- | --- | --- | --- | --- | --- | --- | --- | --- | --- |
| NCI-H3122 | 0.897 | 0.897 | 0.927 | 0.986 | 0.684 | 1.11 | 1.02 | 1.05 | 1.05 | 0.915 | 0.235 | 0.246 | 0.233 | 0.232 | 0.305 | 0.933 | 0.984 | 0.861 | 0.794 |  |
| PC-3 [JPC-3] | 1.09 | 0.984 | 0.967 |  | 0.463 | 0.701 | 0.824 | 0.736 | 0.968 | 0.732 | 0.82 |  | 0.621 | 0.399 | 0.47 | 0.889 | 0.939 | 1.14 | 0.997 | 0.932 |
| PC-14 | 1.01 | 0.799 | 1.09 |  | 0.879 | 0.794 | 0.964 | 0.821 | 0.935 | 0.596 | 1.01 |  | 0.786 | 0.561 | 0.0572 | 0.229 | 0.275 | 0.249 | 0.115 | 0.271 |
| RERF-LC-KJ | 0.883 | 0.77 | 0.857 | 0.695 | 0.734 | 0.937 | 1.07 | 1.06 | 1.2 | 0.742 | 0.887 | 0.679 | 0.851 | 0.726 | 0.516 | 0.939 | 0.816 | 0.858 | 0.574 | 0.743 |
| SK-LU-1 | 0.956 | 0.829 | 0.841 | 0.746 | 0.284 | 0.93 | 0.926 |  | 1.42 | 0.84 | 0.5 | 0.527 | 0.538 | 0.474 | 0.326 | 0.135 | 0.208 | 0.172 | 0.179 | 0.183 |
| SW 1573 | 1.13 | 0.954 | 1.13 | 0.878 | 0.52 | 0.881 | 1.34 | 1.02 | 1.03 | 0.639 | 0.59 | 0.476 | 0.526 | 0.514 | 0.251 | 0.466 | 0.393 | 0.499 | 0.343 | 0.364 |
| UMC-11 | 1.1 | 1.09 | 1.12 | 1.09 | 0.39 | 0.538 | 0.577 | 0.903 | 0.852 | 0.373 | 0.984 | 0.71 | 0.771 | 0.873 | 0.493 | 0.418 | 0.556 | 0.512 | 0.335 | 0.437 |
